Results taken from PubChem BioAssay (NCI).
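Exposure lasted 48 hours, with cells grown in 96-well plates and compounds tested at five concentrations. TGI: total growth inhibition.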

What was measured:
Test in all cases: NCI-60 cell line screen, 48 h
NCI-H226 lung = system: NCI-H226 lung
KM12 colon = system: KM12 colon
UACC-257 melanoma = system: UACC-257 melanoma
RPMI-8226 leukemia = system: RPMI-8226 leukemia
CAKI-1 renal = system: CAKI-1 renal
SN12C renal = system: SN12C renal
MDA-N = system: MDA-N
ACHN renal = system: ACHN renal
HCT-116 colon = system: HCT-116 colon
SK-MEL-5 melanoma = system: SK-MEL-5 melanoma
MOLT-4 leukemia = system: MOLT-4 leukemia
786-0 renal = system: 786-0 renal
SR leukemia = system: SR leukemia
OVCAR-3 ovarian = system: OVCAR-3 ovarian
SK-MEL-28 melanoma = system: SK-MEL-28 melanoma
OVCAR-8 ovarian = system: OVCAR-8 ovarian
NCI-H460 lung = system: NCI-H460 lung
UACC-62 melanoma = system: UACC-62 melanoma
SF-539 CNS = system: SF-539 CNS
UO-31 renal = system: UO-31 renal
SK-MEL-2 melanoma = system: SK-MEL-2 melanoma
CCRF-CEM leukemia = system: CCRF-CEM leukemia
HOP-62 NSCLC = system: HOP-62 NSCLC
SW-620 colon = system: SW-620 colon
HCC-2998 colon = system: HCC-2998 colon
MCF7 breast = system: MCF7 breast
RXF 393 renal = system: RXF 393 renal
NCI/ADR-RES ovarian = system: NCI/ADR-RES ovarian
NCI-H23 lung = system: NCI-H23 lung
T-47D breast = system: T-47D breast
HOP-92 NSCLC = system: HOP-92 NSCLC
MALME-3M melanoma = system: MALME-3M melanoma
SF-268 CNS = system: SF-268 CNS
LOX IMVI melanoma = system: LOX IMVI melanoma
MDA-MB-435 = system: MDA-MB-435
NCI-H522 lung = system: NCI-H522 lung
SNB-19 CNS = system: SNB-19 CNS
COLO 205 colon = system: COLO 205 colon
DU-145 prostate = system: DU-145 prostate
TK-10 renal = system: TK-10 renal
SK-OV-3 ovarian = system: SK-OV-3 ovarian
HT29 colon = system: HT29 colon
EKVX NSCLC = system: EKVX NSCLC
OVCAR-5 ovarian = system: OVCAR-5 ovarian
M14 melanoma = system: M14 melanoma
IGROV1 ovarian = system: IGROV1 ovarian
K-562 leukemia = system: K-562 leukemia
HCT-15 colon = system: HCT-15 colon
HL-60(TB) leukemia = system: HL-60(TB) leukemia
MDA-MB-231 breast = system: MDA-MB-231 breast
HS 578T breast = system: HS 578T breast
PC-3 prostate = system: PC-3 prostate
A498 renal = system: A498 renal
SF-295 CNS = system: SF-295 CNS
U251 CNS = system: U251 CNS
BT-549 breast = system: BT-549 breast
A549 NSCLC = system: A549 NSCLC
OVCAR-4 ovarian = system: OVCAR-4 ovarian

## CN1CCN(CC(=O)Nc2cccc3ccccc23)CC1
NCI-H226 lung
  TGI: > 100 µM
KM12 colon
  TGI: > 100 µM
UACC-257 melanoma
  TGI: > 100 µM
RPMI-8226 leukemia
  TGI: > 100 µM
CAKI-1 renal
  TGI: > 100 µM
SN12C renal
  TGI: > 100 µM
MDA-N
  TGI: > 100 µM
ACHN renal
  TGI: > 100 µM
HCT-116 colon
  TGI: > 100 µM
SK-MEL-5 melanoma
  TGI: > 100 µM
MOLT-4 leukemia
  TGI: > 100 µM
786-0 renal
  TGI: > 100 µM
SR leukemia
  TGI: > 100 µM
OVCAR-3 ovarian
  TGI: > 100 µM
SK-MEL-28 melanoma
  TGI: > 100 µM
OVCAR-8 ovarian
  TGI: > 100 µM
NCI-H460 lung
  TGI: > 100 µM
UACC-62 melanoma
  TGI: > 100 µM
SF-539 CNS
  TGI: > 100 µM
UO-31 renal
  TGI: > 100 µM
SK-MEL-2 melanoma
  TGI: > 100 µM
CCRF-CEM leukemia
  TGI: > 100 µM
HOP-62 NSCLC
  TGI: > 100 µM
SW-620 colon
  TGI: > 100 µM
HCC-2998 colon
  TGI: > 100 µM
MCF7 breast
  TGI: > 100 µM
RXF 393 renal
  TGI: > 100 µM
NCI/ADR-RES ovarian
  TGI: > 100 µM
NCI-H23 lung
  TGI: > 100 µM
T-47D breast
  TGI: > 100 µM
HOP-92 NSCLC
  TGI: > 100 µM
MALME-3M melanoma
  TGI: > 100 µM
SF-268 CNS
  TGI: > 100 µM
LOX IMVI melanoma
  TGI: > 100 µM
MDA-MB-435
  TGI: > 100 µM
NCI-H522 lung
  TGI: > 100 µM
SNB-19 CNS
  TGI: > 100 µM
COLO 205 colon
  TGI: > 100 µM
DU-145 prostate
  TGI: > 100 µM
TK-10 renal
  TGI: > 100 µM
SK-OV-3 ovarian
  TGI: > 100 µM
HT29 colon
  TGI: > 31.6 µM
EKVX NSCLC
  TGI: > 100 µM
OVCAR-5 ovarian
  TGI: > 100 µM
M14 melanoma
  TGI: > 100 µM
IGROV1 ovarian
  TGI: > 100 µM
K-562 leukemia
  TGI: > 100 µM
HCT-15 colon
  TGI: > 100 µM
HL-60(TB) leukemia
  TGI: > 100 µM
MDA-MB-231 breast
  TGI: > 100 µM
HS 578T breast
  TGI: > 100 µM
PC-3 prostate
  TGI: > 100 µM
A498 renal
  TGI: > 100 µM
SF-295 CNS
  TGI: > 100 µM
U251 CNS
  TGI: > 100 µM
BT-549 breast
  TGI: > 100 µM
A549 NSCLC
  TGI: > 100 µM
OVCAR-4 ovarian
  TGI: > 100 µM

## CCCCCCc1nn2c(-c3ccncc3)nnc2s1
NCI-H226 lung
  TGI: > 10 µM
KM12 colon
  TGI: > 10 µM
UACC-257 melanoma
  TGI: > 10 µM
RPMI-8226 leukemia
  TGI: > 10 µM
CAKI-1 renal
  TGI: > 10 µM
SN12C renal
  TGI: > 10 µM
MDA-N
  TGI: > 10 µM
ACHN renal
  TGI: > 10 µM
HCT-116 colon
  TGI: > 10 µM
SK-MEL-5 melanoma
  TGI: > 10 µM
MOLT-4 leukemia
  TGI: > 10 µM
786-0 renal
  TGI: > 10 µM
SR leukemia
  TGI: > 10 µM
OVCAR-3 ovarian
  TGI: > 10 µM
SK-MEL-28 melanoma
  TGI: > 10 µM
OVCAR-8 ovarian
  TGI: > 10 µM
NCI-H460 lung
  TGI: > 10 µM
UACC-62 melanoma
  TGI: > 10 µM
SF-539 CNS
  TGI: > 10 µM
UO-31 renal
  TGI: 2.89 µM
SK-MEL-2 melanoma
  TGI: > 10 µM
CCRF-CEM leukemia
  TGI: > 10 µM
HOP-62 NSCLC
  TGI: > 10 µM
SW-620 colon
  TGI: > 10 µM
HCC-2998 colon
  TGI: > 10 µM
MCF7 breast
  TGI: > 10 µM
RXF 393 renal
  TGI: > 10 µM
NCI/ADR-RES ovarian
  TGI: > 10 µM
NCI-H23 lung
  TGI: > 10 µM
T-47D breast
  TGI: > 10 µM
HOP-92 NSCLC
  TGI: > 10 µM
MALME-3M melanoma
  TGI: > 10 µM
SF-268 CNS
  TGI: > 10 µM
LOX IMVI melanoma
  TGI: > 10 µM
MDA-MB-435
  TGI: > 10 µM
NCI-H522 lung
  TGI: > 10 µM
SNB-19 CNS
  TGI: > 10 µM
COLO 205 colon
  TGI: > 10 µM
DU-145 prostate
  TGI: > 10 µM
TK-10 renal
  TGI: > 10 µM
SK-OV-3 ovarian
  TGI: > 10 µM
HT29 colon
  TGI: > 10 µM
EKVX NSCLC
  TGI: > 10 µM
OVCAR-5 ovarian
  TGI: > 10 µM
M14 melanoma
  TGI: > 10 µM
IGROV1 ovarian
  TGI: > 10 µM
K-562 leukemia
  TGI: > 10 µM
HCT-15 colon
  TGI: > 10 µM
HL-60(TB) leukemia
  TGI: > 10 µM
MDA-MB-231 breast
  TGI: > 10 µM
HS 578T breast
  TGI: > 10 µM
PC-3 prostate
  TGI: > 10 µM
A498 renal
  TGI: > 10 µM
SF-295 CNS
  TGI: > 10 µM
U251 CNS
  TGI: > 10 µM
BT-549 breast
  TGI: > 10 µM
A549 NSCLC
  TGI: > 10 µM
OVCAR-4 ovarian
  TGI: > 10 µM
